Experimental data as given in patent US11952365B2, “Anti-viral compounds” (Aligos Therapeutics, Inc., priority 2020, dated 2024).
Like-named read-outs stand apart in the source and are kept apart here.

What was measured:
human cathepsin L = biological target: T1, human cathepsin L (Homo sapiens, UniProt P07711); experiment: cathepsin L assay; format: biochemical; settings: 10 pM human cathepsin L, Z-FR-AMC 2 μM, class symbols
T1 construct: purchased R&D Systems
Outline: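 Reactions began by adding 2 μM (final) Z-FR-AMC substrate to 10 pM human cathepsin L that had been preincubated 30 min with inhibitor. Kinetic AMC fluorescence at 355/460 nm over 30 min at 2-min intervals; four-parameter fitting gave IC50 values.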

[1] = system: human beta-coronavirus OC43; experiment: microbe, parasite or virus in culture; format: cell-based; settings: Betacoronavirus 1, OC43, HeLa, 144 h, OC43 in HeLa cells, 6 days at 33° C., class symbols; read-out: EC50
[2] = system: SARS-CoV-2-GHB-03021/2020; experiment: SARS-CoV-2 Infection Model in Huh7 Cells; format: cell-based; settings: Severe acute respiratory syndrome coronavirus 2, Huh-7, 96 h, SARS-CoV-2, day 4 p.i., MTS
[3] = system: SARS-CoV-2-GHB-03021/2020; experiment: microbe, parasite or virus in culture; format: cell-based; settings: Severe acute respiratory syndrome coronavirus 2, Vero C1008, 96 h; read-out: VeroE6 + CP (EC50)
3CLpro = 3CLpro (Severe acute respiratory syndrome coronavirus 2, UniProt P0DTD1); experiment: SARS-CoV-2 3CLpro protease assay (duplex, SAMDI-MS); format: biochemical; set-up: For the duplex assay, 3CLpro and HRV3C was added; settings: 3CLpro, 30 mins preincubation, class symbols; read-out: SARS-Cov-2 IC50
HRV3C = HRV3C (Human rhinovirus 14, UniProt P03303); experiment: HRV3C protease assay (duplex, SAMDI-MS); format: biochemical, HRV
Outline: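 HRV3C was preincubated 30 min with compound alongside 3CLpro at ambient temperature, then two biotinylated peptide substrates were added for 30 min. Quenching used 0.5% formic acid (final). Cleaved product was captured on neutravidin SAMDI arrays and quantified by MALDI-TOF as product/internal-standard AUC ratio; IC50 from four-parameter fit.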

in vitro [4] = settings: African green monkey, VeroE6 + CP (CC50), Vero E6-eGFP cells with CP-100356, absence of virus, MTS
in vitro [5] = settings: human
[6] = Cytotoxicity plates without OC43 virus (cell-titer-glo); format: cell-based, human; settings: human; HeLa cells without OC43 virus, class symbols
Outline: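 Run as a virus-free counterpart of the OC43 cytopathic-effect assay. Attached HeLa cells received compound dilutions in EMEM with 2% FBS and were kept 6 days at 33 °C. Cell viability was then measured by CellTiter-Glo luminescence.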

[7] = HRV3C, 30 mins preincubation, class symbols, read-out: HRV IC50
[8] = HRV IC50, HRV3C, 30 mins preincubation, class symbols
[9] = HRV3C, 30 mins preincubation, bound, read-out: HRV IC50

SMILES | IC50 (human cathepsin L) | EC50 [1] | EC50 ([2]; numeric bounds) | EC50 [3] | IC50 (3CLpro) | IC50 (HRV3C; [7]) | CC50 (in vitro [4]; numeric bounds) | CC50 (in vitro [5]) | CC50 at 6 days [6] | EC50 ([2]; class symbols) | IC50 (HRV3C; [8]) | IC50 (HRV3C; HRV3C, printed bound without unit, read-out: HRV IC50) | IC50 (HRV3C; [9]) | CC50 (in vitro [4]; class symbols)
COc1cccc2[nH]c(C(=O)N3C[C@H]4[C@@H]([C@H]3C(=O)N[C@@H](C[C@@H]3CCNC3=O)C(=O)C(N)=O)C4(C)C)cc12 [Compound 51, (3S)-3-{[(1R,2S,5S)-3-(4-methoxy-1H-indole-2-carbonyl)-6,6-dimethyl-3-azabicyclo[3.1.0]hexan-2-yl]formamido}-2-oxo-4-[(3S)-2-oxopyrrolidin-3-yl]butanamide] | 0.1 to 1 µM | 1 to 10 µM | > 100 µM | > 100 µM | < 0.02 µM | 0.2 to 2 µM | > 100 µM | > 100 µM | > 10 µM | – | – | – | – | –
COc1cccc2[nH]c(C(=O)N3C[C@@H]4CCC[C@@H]4[C@H]3C(=O)NC(C[C@@H]3CCNC3=O)C(=O)C(=O)NC3CC3)cc12 (stereo partly drawn) [Compound 52, 3-{[(1S,3aR,6aS)-2-(4-methoxy-1H-indole-2-carbonyl)-hexahydro-1H-cyclopenta[c]pyrrol-1-yl]formamido}-N-cyclopropyl-2-oxo-4-[(3S)-2-oxopyrrolidin-3-yl]butanamide] | ≥ 10 µM | 1 to 10 µM | – | 1 to 10 µM | < 0.02 µM | 0.2 to 2 µM | > 100 µM | > 100 µM | > 10 µM | 10 to 100 µM | – | – | – | –
COc1cccc2[nH]c(C(=O)N3C[C@@H]4CCC[C@@H]4[C@H]3C(=O)N[C@@H](C[C@@H]3CCCNC3=O)C(O)S(=O)(=O)O)cc12 (stereo partly drawn) [Compound 53, sodium (2S)-2-{[(1S,3aR,6aS)-2-(4-methoxy-1H-indole-2-carbonyl)-hexahydro-1H-cyclopenta[c]pyrrol-1-yl]formamido}-1-hydroxy-3-[(3S)-2-oxopiperidin-3-yl]propane-1-sulfonate] | ≥ 10 µM | 0.1 to 1 µM | – | 1 to 10 µM | < 0.02 µM | – | > 100 µM | > 100 µM | > 10 µM | < 1 µM | 0.02 to 0.2 µM | – | – | –
COc1cccc2[nH]c(C(=O)N3C[C@@H]4CCC[C@@H]4[C@H]3C(=O)N[C@@H](C[C@@H]3CCNC3=O)C(=O)c3ncc[nH]3)cc12 [Compound 54, (1S,3aR,6aS)—N-[(2S)-1-(1H-imidazol-2-yl)-1-oxo-3-[(3S)-2-oxopyrrolidin-3-yl]propan-2-yl]-2-(4-methoxy-1H-indole-2-carbonyl)-hexahydro-1H-cyclopenta[c]pyrrole-1-carboxamide] | ≥ 10 µM | 10 to 100 µM | > 100 µM | > 100 µM | 2 to 20 µM | – | > 100 µM | > 100 µM | > 10 µM | – | – | > 10 µM | – | –
COc1cccc2[nH]c(C(=O)N3C[C@@H]4CCC[C@@H]4[C@H]3C(=O)NC(C[C@@H]3CCCNC3=O)C(=O)C(=O)NC3CC3)cc12 (stereo partly drawn) [Compound 55, 3-{[(1S,3aR,6aS)-2-(4-methoxy-1H-indole-2-carbonyl)-hexahydro-1H-cyclopenta[c]pyrrol-1-yl]formamido}-N-cyclopropyl-2-oxo-4-[(3S)-2-oxopiperidin-3-yl]butanamide] | ≥ 10 µM | 0.1 to 1 µM | – | 1 to 10 µM | < 0.02 µM | 0.02 to 0.2 µM | > 100 µM | > 100 µM | > 10 µM | 1 to 10 µM | – | – | – | –
O=C1NCCC[C@H]1C[C@H](NC(=O)[C@@H]1[C@H]2CCC[C@H]2CN1C(=O)c1cc2ccccc2[nH]1)C(O)S(=O)(=O)O (stereo partly drawn) [Compound 58, sodium (2S)-2-{[(1S,3aR,6aS)-2-(1H-indole-2-carbonyl)-hexahydro-1H-cyclopenta[c]pyrrol-1-yl]formamido}-1-hydroxy-3-[(3S)-2-oxopiperidin-3-yl]propane-1-sulfonate] | 1 to 10 µM | 0.1 to 1 µM | – | < 1 µM | < 0.02 µM | – | > 100 µM | > 100 µM | > 10 µM | < 1 µM | 0.02 to 0.2 µM | – | – | –
O=C1NCC[C@H]1C[C@H](NC(=O)[C@@H]1[C@H]2CCC[C@H]2CN1C(=O)c1cc2c(Cl)cccc2[nH]1)C(=O)CO [Compound 60, (1S,3aR,6aS)-2-(4-chloro-1H-indole-2-carbonyl)-N-[(2S)-4-hydroxy-3-oxo-1-[(3S)-2-oxopyrrolidin-3-yl]butan-2-yl]-hexahydro-1H-cyclopenta[c]pyrrole-1-carboxamide] | ≥ 10 µM | < 0.1 µM | – | < 1 µM | < 0.02 µM | – | – | > 100 µM | > 10 µM | < 1 µM | – | – | > 10 µM | > 10 µM
O=C1NCC[C@H]1C[C@H](NC(=O)[C@@H]1[C@H]2CCC[C@H]2CN1C(=O)c1cc2c(Cl)cccc2[nH]1)C(=O)COCc1ccccc1 [Compound 60A, (1S,3aR,6aS)—N-[(2S)-4-(benzyloxy)-3-oxo-1-[(3S)-2-oxopyrrolidin-3-yl]butan-2-yl]-2-(4-chloro-1H-indole-2-carbonyl)-hexahydro-1H-cyclopenta[c]pyrrole-1-carboxamide] | ≥ 10 µM | < 0.1 µM | – | 1 to 10 µM | 0.2 to 2 µM | – | > 100 µM | 1 to 10 µM | > 10 µM | 1 to 10 µM | – | – | > 10 µM | –
COc1cccc2[nH]c(C(=O)N3C[C@@H]4CCC[C@@H]4[C@H]3C(=O)N[C@@H](C[C@@H]3CCNC3=O)C(=O)COP(=O)(O)O)cc12 [Compound 61, (3S)-3-1{[(1S,3aR,6aS)-2-(4-methoxy-1H-indole-2-carbonyl)-hexahydro-1H-cyclopenta[c]pyrrol-1-yl]formamido}-2-oxo-4-[(3S)-2-oxopyrrolidin-3-yl]butoxyphosphonic acid] | ≥ 10 µM | 0.1 to 1 µM | – | 1 to 10 µM | 0.2 to 2 µM | – | > 100 µM | > 100 µM | > 10 µM | 1 to 10 µM | – | – | > 10 µM | –
COc1cccc2[nH]c(C(=O)N3C[C@@H]4CCC[C@@H]4[C@H]3C(=O)NC(C[C@@H]3CCNC3=O)C(=O)C(C)O)cc12 (stereo partly drawn) [Compound 62, (1S,3aR,6aS)—N-(4-hydroxy-3-oxo-1-((S)-2-oxopyrrolidin-3-yl)pentan-2-yl)-2-(4-methoxy-1H-indole-2-carbonyl)octahydrocyclopenta[c]pyrrole-1-carboxamide] | ≥ 10 µM | 1 to 10 µM | – | 10 to 100 µM | 0.2 to 2 µM | – | – | > 100 µM | > 10 µM | 10 to 100 µM | – | – | > 10 µM | > 10 µM
O=C1NCC[C@H]1C[C@H](NC(=O)[C@@H]1[C@H]2CCC[C@H]2CN1C(=O)c1cc2c(C(F)(F)F)cccc2[nH]1)C(=O)CO [Compound 63, (1S,3aR,6aS)—N-[(2S)-4-hydroxy-3-oxo-1-[(3S)-2-oxopyrrolidin-3-yl]butan-2-yl]-2-[4-(trifluoromethyl)-1H-indole-2-carbonyl]-hexahydro-1H-cyclopenta[c]pyrrole-1-carboxamide] | ≥ 10 µM | 0.1 to 1 µM | – | < 1 µM | 0.02 to 0.2 µM | – | – | > 10 µM | > 10 µM | < 1 µM | – | – | > 10 µM | > 10 µM
O=C1NCC[C@H]1C[C@H](NC(=O)[C@@H]1[C@H]2CCC[C@H]2CN1C(=O)c1cc2c(OC(F)(F)F)cccc2[nH]1)C(=O)CO [Compound 64, (1S,3aR,6aS)—N-[(2S)-4-hydroxy-3-oxo-1-[(3S)-2-oxopyrrolidin-3-yl]butan-2-yl]-2-[4-(trifluoromethoxy)-1H-indole-2-carbonyl]-hexahydro-1H-cyclopenta[c]pyrrole-1-carboxamide] | ≥ 10 µM | < 0.1 µM | – | < 1 µM | 0.02 to 0.2 µM | – | – | > 10 µM | > 10 µM | < 1 µM | – | – | > 10 µM | > 10 µM
COc1ccc(F)c2[nH]c(C(=O)N3C[C@@H]4CCC[C@@H]4[C@H]3C(=O)N[C@@H](C[C@@H]3CCNC3=O)C(=O)CO)cc12 [Compound 65, (1S,3aR,6aS)-2-(7-fluoro-4-methoxy-1H-indole-2-carbonyl)-N-[(2S)-4-hydroxy-3-oxo-1-[(3S)-2-oxopyrrolidin-3-yl]butan-2-yl]-hexahydro-1H-cyclopenta[c]pyrrole-1-carboxamide] | ≥ 10 µM | 0.1 to 1 µM | – | < 1 µM | < 0.02 µM | 0.2 to 2 µM | – | > 100 µM | > 10 µM | < 1 µM | – | – | – | > 10 µM
